From US12459951B2, “Compounds that interact with RAS superfamily proteins for treatment of cancers, inflammatory diseases, rasopathies, and fibrotic disease” (SHY Therapeutics, LLC, priority 2022, dated 2025)

Experiments:
MAPK p38 phosphorylation = experiment: MAPK p38 Activation Assay (western blot), Panc-1; type: cell-based, human; settings: at 10 μM, Panc-1 pancreatic cancer cell line; starred symbols = activation
Description: Protocol for MAPK p38 Activation Assay
This assay is referred to as the “MAPK p38 Activation Assay” throughout this application.
Cell lines: Human tumor-derived pancreatic cancer cell line Panc-1 (expressing KRas G12D mutant) was purchased from American Type Culture Collection and grown in complete DMEM-High Glucose medium, supplemented with penicillin (100 U/mL), streptomycin (100 μg/mL), and 10% heat-inactivated FBS at 37° C. in a humidified incubator with 5% CO2.
Method 1: Cells were plated at 350000 cells/well density in a 12-well plate, allowed 3 hours to adhere to the plate, then starved in the appropriate medium in the presence of 0.5% FBS overnight. The small molecules to be tested were added to the cells in the final concentration of 10 μM in the presence of 0.3% DMSO for 6 hours incubation at 37° C. For IC50 value determination, serial dilutions of compounds were added to cells under the same conditions. Next, cells were stimulated with 1.5 ng/ml EGF for 15 minutes then cells were lysed with lysis buffer containing 1% Triton X-100, EDTA, and Halt™ Protease & Phosphatase Inhibitor Cocktail (Thermo Scientific). Protein concentration was assessed by BCA protein assay (Thermo Scientific). Phosphorylation level of MAPK p38 was determined by western blot.
Method 2: Cells were plated at 350000 cells/well density in a 12-well plate in 10% FBS. The next day small molecules to be tested were added to the cells in the final concentration of 10 μM in the presence of 0.3% DMSO for 6 hours incubation at 37° C. For IC50 value determination, serial dilutions of compounds were added to cells under the same conditions. Next, cells were lysed with lysis buffer containing 1% Triton X-100, EDTA, and Halt™ Protease & Phosphatase Inhibitor Cocktail (Thermo Scientific). Protein concentration was assessed by BCA protein assay (Thermo Scientific). Phosphorylation level of MAPK p38 was determined by western blot.
Western blot protocol: Equal amounts of protein (15-50 μg) were separated by SDS-PAGE and transferred to nitrocellulose membranes (Invitrogen by Thermo Fisher Scientific). The membrane was stained with Ponceau S Stain (Boston BioProducts) to verify uniform protein loading. Membranes were blocked with 10% milk and phosphorylation levels of MAPK p38 were assessed by incubating overnight at 4° C. with the following antibody: Phospho-p38 MAPK (Thr180/Tyr182), from Cell Signaling Technology. Then the membranes were incubated with HRP-conjugated secondary antibody (Jackson Immunoresearch, West Grove, PA). Bands were incubated in Amersham ECL Prime Western Blotting Detection Reagent (GE Healthcare) and visualized using the ChemiDoc MP imaging system (Bio-Rad).

Erk1/2 phosphorylation = experiment: Erk1/2 Phosphorylation Assay (western blot), Panc-1; type: cell-based, human; settings: at 10 μM, * = activation
How it was run: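 Phospho-Erk1/2 (Thr202/Tyr204) was detected by western blot in lysates of Panc-1 cells (KRas G12D). These had 6 h, 37° C exposure to 10 μM compound or a dilution series for IC50, in 0.3% DMSO. Cells were either starved overnight in 0.5% FBS with a 15-min 1.5 ng/ml EGF pulse, or kept unstimulated in 10% FBS.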

TNF-alpha = TNF-alpha Quantification Assay (ELISA), LPS-stimulated RAW 264.7; type: cell-based; settings: Mus musculus, RAW264.7; at 10 μM; read-out: TNFα: % inh.

SMILES	% inh of MAPK p38 in Panc-1 (MAPK p38 phosphorylation)	% inh of Erk1/2 phosphorylation in Panc-1 (Erk1/2 phosphorylation)	inhibition at 10 µM (TNF-alpha) [%]
CO[C@H]1CC[C@H](Nc2nc(-c3nccn3C)nn3cc(-c4cccnc4)c(-c4ccccc4)c23)C1 (racemic) [Compound 194, rac N-((1S,3S)-3-Methoxycyclopentyl)-2-(1-methyl-1H-imidazol-2-yl)-5-phenyl-6-(pyridin-3-yl)pyrrolo[2,1-f][1,2,4]triazin-4-amine]	E (E = 1-30% inhibition)	D* (85-100% activation)	50 to 74
COc1cccc(-c2cn3nc(-c4nccn4C)nc(N[C@H]4C[C@H](OC)C4)c3c2-c2ccccc2)c1C [Compound 209, 6-(3-methoxy-2-methylphenyl)-N-((1r,3r)-3-methoxycyclobutyl)-2-(1-methyl-1H-imidazol-2-yl)-5-phenylpyrrolo[2,1-f][1,2,4]triazin-4-amine]	H (H = 100% inhibition)	D (85-100% inhibition)	75 to 100
CO[C@H]1C[C@H](Nc2nc(-c3nccn3C)nn3cc(-c4cccc(OCCN)c4)c(-c4ccccc4)c23)C1 [Compound 205, 6-(3-(2-Aminoethoxy)phenyl)-N-((1r,3r)-3-methoxycyclobutyl)-2-(1-methyl-1H-imidazol-2-yl)-5-phenylpyrrolo[2,1-f][1,2,4]triazin-4-amine]	G (G = 75-99% inhibition)	D* (85-100% activation)	–
CO[C@H]1CC[C@H](Nc2nc(-c3nccn3C)nn3cc(-c4ccn(C)n4)c(C(=O)NCCN4CCOCC4)c23)C1 (racemic) [Compound 185, rac 4-(((1S,3S)-3-methoxycyclo-pentyl)amino)-2-(1-methyl-1H-imidazol-2-yl)-6-(1-methyl-1H-pyrazol-3-yl)-N-(2-morpholino-ethyl)pyrrolo[2,1-f][1,2,4]triazine-5-carboxamide]	–	B (26-49% inhibition)	25 to 49
COc1ccnc(N(C)c2nc(-c3nccn3C)nn3cc(-c4ccn(C)n4)c(C)c23)c1 [Compound 223, N-(4-Methoxypyridin-2-yl)-N,5-dimethyl-2-(1-methyl-1H-imidazol-2-yl)-6-(1-methyl-1H-pyrazol-3-yl)pyrrolo[2,1-f][1,2,4]triazin-4-amine]	–	A (1-25% inhibition)	1 to 24
CCOc1ccc(Nc2nc(-c3nccn3C)nn3cc(-c4ccn(C)n4)c(C)c23)nc1 [Compound 229, N-(5-Ethoxypyridin-2-yl)-5-methyl-2-(1-methyl-1H-imidazol-2-yl)-6-(1-methyl-1H-pyrazol-3-yl)pyrrolo[2,1-f][1,2,4]triazin-4-amine]	–	A (1-25% inhibition)	0
Cn1ccnc1-c1nc(O)c2c(-c3ccccc3)c(-c3cccnc3)cn2n1 [Compound 189, 2-(1-Methyl-1H-imidazol-2-yl)-5-phenyl-6-(pyridin-3-yl)pyrrolo[2,1-f][1,2,4]triazin-4-ol]	–	A* (1-25% activation)	1 to 24
COc1ccnc(Nc2nc(-c3nccn3C)nn3cc(-c4ccn(C)n4)c(C(=O)NCC(F)(F)F)c23)c1 [Compound 174, 4-((4-Methoxypyridin-2-yl)amino)-2-(1-methyl-1H-imidazol-2-yl)-6-(1-methyl-1H-pyrazol-3-yl)-N-(2,2,2-trifluoro-ethyl)pyrrolo[2,1-f][1,2,4]triazine-5-carboxamide]	–	D* (85-100% activation)	0
CO[C@H]1CC[C@H](Nc2nc(-c3nccn3C)nn3cc(-c4ccn(C)n4)c(C(=O)NCC(F)(F)F)c23)C1 (racemic) [Compound 181, 4-(((1S,3S)-3-Methoxycyclopentyl)amino)-2-(1-methyl-1H-imidazol-2-yl)-6-(1-methyl-1H-pyrazol-3-yl)-N-(2,2,2-trifluoroethyl)pyrrolo[2,1-f][1,2,4]triazine-5-carboxamide]	–	A (1-25% inhibition)	1 to 24
Cc1c(-c2ccn(C)n2)cn2nc(-c3nccn3C)nc(N)c12 [Compound 211, 5-Methyl-2-(1-methyl-1H-imidazol-2-yl)-6-(1-methyl-1H-pyrazol-3-yl)pyrrolo[2,1-f][1,2,4]triazin-4-amine]	–	A* (1-25% activation)	0
Cc1c(-c2ccn(C)n2)cn2nc(-c3nccn3C)nc(Nc3ccc(N4CCCC4)cn3)c12 [Compound 228, 5-Methyl-2-(1-methyl-1H-imidazol-2-yl)-6-(1-methyl-1H-pyrazol-3-yl)-N-(5-(pyrrolidin-1-yl)pyridin-2-yl)pyrrolo[2,1-f][1,2,4]triazin-4-amine]	–	A* (1-25% activation)	1 to 24
Cc1c(-c2ccn(C)n2)cn2nc(-c3nccn3C)nc(O)c12 [Compound 172, 5-Methyl-2-(1-methyl-1H-imidazol-2-yl)-6-(1-methyl-1H-pyrazol-3-yl)pyrrolo[2,1-f][1,2,4]triazin-4-ol]	–	0 (0% inhibition)	0
CCNC(=O)c1c(-c2ccn(C)n2)cn2nc(-c3nccn3C)nc(Nc3cc(OC)ccn3)c12 [Compound 173, N-Ethyl-4-((4-methoxypyridin-2-yl)amino)-2-(1-methyl-1H-imidazol-2-yl)-6-(1-methyl-1H-pyrazol-3-yl)pyrrolo[2,1-f][1,2,4]triazine-5-carboxamide]	–	C (50-84% inhibition)	0
COc1cccc(-c2cn3nc(-c4nccn4C)nc(N[C@H]4C[C@H](OC)C4)c3c2-c2ccccc2)c1OC [Compound 219, 6-(2,3-Dimethoxyphenyl)-N-((1r,3r)-3-methoxycyclobutyl)-2-(1-methyl-1H-imidazol-2-yl)-5-phenylpyrrolo[2,1-f][1,2,4]triazin-4-amine]	–	D (85-100% inhibition)	75 to 100
Cc1c(-c2ccn(C)n2)cn2nc(-c3nccn3C)nc(Nc3ccc(C(C)(C)O)cn3)c12 [Compound 241, 2-(6-((5-Methyl-2-(1-methyl-1H-imidazol-2-yl)-6-(1-methyl-1H-pyrazol-3-yl)pyrrolo[2,1-f][1,2,4]triazin-4-yl)amino)pyridin-3-yl)propan-2-ol]	–	D* (85-100% activation)	1 to 24
CO[C@H]1C[C@H](Nc2nc(-c3nccn3C)nn3cc(-c4cccnc4)c(-c4cccnc4)c23)C1 [Compound 171, N-((1r,3r)-3-Methoxycyclobutyl)-2-(1-methyl-1H-imidazol-2-yl)-5,6-di(pyridin-3-yl)pyrrolo[2,1-f][1,2,4]triazin-4-amine]	–	B (26-49% inhibition)	0
COc1ccc(N(C)c2nc(-c3nccn3C)nn3cc(-c4ccn(C)n4)c(C)c23)nc1 [Compound 225, N-(5-Methoxypyridin-2-yl)-N,5-dimethyl-2-(1-methyl-1H-imidazol-2-yl)-6-(1-methyl-1H-pyrazol-3-yl)pyrrolo[2,1-f][1,2,4]triazin-4-amine]	–	B (26-49% inhibition)	0
Cc1c(-c2ccn(C)n2)cn2nc(-c3nccn3C)nc(Nc3ccc(OCC(F)(F)F)cn3)c12 [Compound 230, 5-Methyl-2-(1-methyl-1H-imidazol-2-yl)-6-(1-methyl-1H-pyrazol-3-yl)-N-(5-(2,2,2-trifluoroethoxy)pyridin-2-yl)pyrrolo[2,1-f][1,2,4]triazin-4-amine]	–	D* (85-100% activation)	1 to 24
